In ChEMBL document CHEMBL4184262, “Iodine mediated pyrazolo-quinoline derivatives as potent anti-proliferative agents” (Bioorg Med Chem Lett, 2018):

Experiments:
Assay type in all cases: functional, cell-based
MCF7 = assay: Antiproliferative activity against human MCF7 cells incubated for 24 hrs by MTT assay; conditions: MCF7, 24 h
A549 = assay: Antiproliferative activity against human A549 cells incubated for 24 hrs by MTT assay; conditions: A549, 24 h
HepG2 = assay: Antiproliferative activity against human HepG2 cells incubated for 24 hrs by MTT assay; conditions: HepG2, 24 h
SK-N-SH = assay: Antiproliferative activity against human SK-N-SH cells incubated for 24 hrs by MTT assay
HeLa = assay: Antiproliferative activity against human HeLa cells incubated for 24 hrs by MTT assay

| IC50 (MCF7) [µM] | IC50 (A549) [µM] | IC50 (HepG2) [µM] | IC50 (SK-N-SH) [µM] | IC50 (HeLa) [µM] | Compound |
| --- | --- | --- | --- | --- | --- |
| 12.3 | 4.92 | 14.6 | 5.99 | 14.3 | Brc1ccc(-c2nn(-c3ccccc3)c3c2c(-c2ccccc2)nc2ccccc23)cc1 |
| 123 | 8.45 | 30.3 | 5.54 | 5.29 | COc1ccccc1-c1nc2ccccc2c2c1c(-c1ccc(Br)cc1)nn2-c1ccccc1 |
| 42.4 | 9.34 | 35 | 5.24 | 23.4 | Brc1ccc(-c2nn(-c3ccccc3)c3c2c(-c2cccs2)nc2ccccc23)cc1 |
| 19.6 | 2.43 | 26 | 4.54 | 8.3 | Cc1ccc(-c2nc3ccccc3c3c2c(-c2ccc(Br)cc2)nn3-c2ccccc2)cc1 |
| 6.01 | 5.96 | 180 | 7.13 | 81.2 | Clc1ccc(-c2nc3ccccc3c3c2c(-c2ccc(Br)cc2)nn3-c2ccccc2)c(Cl)c1 |
| 11.1 | 8.09 | 10.8 | 6.65 | 5.62 | Clc1ccc(-c2nc3ccccc3c3c2c(-c2ccccc2)nn3-c2ccccc2)cc1 |
| 15.4 | 25.8 | 18.8 | 5.39 | 7.81 | COc1ccccc1-c1nc2ccccc2c2c1c(-c1ccccc1)nn2-c1ccccc1 |
| 20.3 | 15.6 | 19.3 | 3.87 | 6.49 | O=[N+]([O-])c1cccc(-c2nc3ccccc3c3c2c(-c2ccc(Br)cc2)nn3-c2ccccc2)c1 |
| – | 0.223 | 6.11 | 2.42 | – | COc1cccc2c1C(=O)c1c(O)c3c(c(O)c1C2=O)C[C@@](O)(C(=O)CO)C[C@@H]3O[C@H]1C[C@H](N)[C@H](O)[C@H](C)O1 [DOXORUBICIN] |
| 24.2 | 56.8 | 32.7 | 5.02 | 7.38 | Cc1ccc(-c2nc3ccccc3c3c2c(-c2ccccc2)nn3-c2ccccc2)cc1 |
| 32.6 | 16.5 | 18.6 | 5.24 | 24.6 | c1ccc(-c2nc3ccccc3c3c2c(-c2ccccc2)nn3-c2ccccc2)cc1 |
| 14 | 8.81 | 30.4 | 3.83 | 4.89 | Brc1ccc(-c2nn(-c3ccccc3)c3c2c(-c2ccco2)nc2ccccc23)cc1 |
| 77.8 | 8.17 | 83.9 | 11.5 | 5.24 | Clc1ccc(-c2nc3ccccc3c3c2c(-c2ccccc2)nn3-c2ccccc2)c(Cl)c1 |
| 38 | 8.79 | 20.7 | 5.47 | 9.52 | Clc1ccc(-c2nc3ccccc3c3c2c(-c2ccc(Br)cc2)nn3-c2ccccc2)cc1 |
| 10.4 | 41.1 | 42.8 | 3.76 | 12 | COc1ccc(-c2nc3ccccc3c3c2c(-c2ccc(Br)cc2)nn3-c2ccccc2)c(OC)c1 |
| 18.4 | 8.1 | 24.4 | 5.54 | 11.8 | Brc1ccc(-c2nn(-c3ccccc3)c3c2c(-c2cccc4ccccc24)nc2ccccc23)cc1 |
